Results reported in paper PMC8397297 (ACS Chemical Neuroscience, 2021).
Entries after “also recorded” stand apart in the source; their conditions may differ.

Experiments:
mGAT1 = molecular target: T1, mGAT1 (Mus musculus, UniProt P31648); assay: competitive MS binding assay with NO711 as unlabeled marker (LC-ESI-MS/MS); conditions: for remaining NO711 binding mGAT1: in the presence of 100 μM inhibitor
T1 construct: expressed in transfected cells; host or cells: HEK-293
Outline: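 Competitive MS binding with unlabeled NO711 as marker, quantified by LC–ESI-MS/MS. Compounds screened at 100 μM for inhibition of marker binding.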

HepG2 cells = assay: HepG2 hepatoma cell-based hepatotoxicity assay (MTS); conditions: 72 h of incubation
Description: To investigate the safety of compounds 2RS,4RS-39c, 50a, and 56a, a HepG2 hepatoma cell-based hepatotoxicity assay was used. Compounds were tested at six concentrations (0.1–100 μM).
Hepatotoxicity and cytotoxicity were estimated according to previously described protocols[62] using the hepatoma HepG2 (ATCC HB-8065) and human embryonic kidney HEK-293 (ATCC CRL1573) cell lines, respectively. In brief, cells were seeded in 96-well plates at a density of 0.7 × 10^4 and cultured at 37 °C in an atmosphere containing 5% CO2. Next, the compounds were added and investigated in quadruplicate at concentrations ranging from 0.1 to 100 μM for 72 h. The antiproliferative drug DX was used as the reference. The CellTiter 96 AQueous nonradioactive cell proliferation assay (MTS) purchased from Promega (Madison, WI, USA) was used for the determination of cell viability. The absorbance at 492 nm was measured using an EnSpire microplate reader (PerkinElmer, Waltham, MA, USA).

oxaliplatin-treated mice [1] = assay: oxaliplatin-induced peripheral neuropathy, tactile allodynia (von Frey test); format: in vivo, mouse
Description: (§1) Before the in vivo tests, the test compounds were suspended in 1% Tween 80 (Baxter, Poland). The compounds were then administered intraperitoneally. […] The test compounds were administered only once daily on days 1 and 7 of oxaliplatin- or paclitaxel-induced neuropathy. In STZ-treated mice, test compounds were administered 21 days after STZ injection. Control mice used in oxaliplatin and paclitaxel NP models were injected with an appropriate amount of vehicle (0.9% saline). Oxaliplatin was purchased from Activate Scientific GmbH (Germany). Paclitaxel and STZ were purchased from Sigma-Aldrich (Poland).
(§2) For pain studies, oxaliplatin was dissolved in 5% glucose solution (Polfa Kutno, Poland). The dose of oxaliplatin used to induce peripheral neuropathy (10 mg/kg, intraperitoneal injection) was chosen on the basis of previous research[63],[64] and available literature data.[65]
(§3) The ability of the test compounds to attenuate tactile allodynia caused by oxaliplatin, paclitaxel, and STZ was assessed using the von Frey test. For this purpose, 3 h after oxaliplatin or paclitaxel and 21 days after STZ injection, the predrug paw withdrawal threshold was measured for each mouse. Then, the test compounds were administered, and 1 h later, the postdrug paw withdrawal threshold was collected for each animal. This part of the experiment aimed to establish the effect of treatment on early phase (acute) pain hypersensitivity induced by cytotoxic drugs. Additionally, in the oxaliplatin model and the paclitaxel model, to assess the effect of test compounds on late phase tactile allodynia, 7 days later, measurements of the predrug and postdrug paw withdrawal thresholds were made in a similar manner to the measurements performed during early phase neuropathy. At this stage of the experiment, there was no additional oxaliplatin/paclitaxel administration.
(§4) An electronic von Frey unit (Bioseb, France) was used to assess the mechanical nociceptive threshold (tactile allodynia) in mice. This device has a single flexible filament that applies increasing force (from 0 to 10 g) against the plantar surface of the hind paw of each mouse. In the von Frey test, the paw withdrawal response of the animals automatically turns off the stimulus, and the mechanical pressure that evokes this response is recorded. On the day of the experiment, the mice were placed individually in test compartments with a wire mesh bottom and left there for 1 h of habituation. Subsequently, to obtain baseline values, each mouse was tested 3 times alternately in each hind paw. Then, the test compounds were administered, and 1 h later, 3 additional measurements were taken and averaged to obtain the mean postdrug values for each mouse.[69]

oxaliplatin-treated mice [2] = assay: oxaliplatin-induced peripheral neuropathy, cold hyperalgesia (cold plate test); format: in vivo, mouse
Description: as §1, §2
A cold plate apparatus (hot/cold plate, Bioseb, France) set at 2.5 °C was used to assess the effect of treatment on cold hyperalgesia in oxaliplatin-treated mice. The cold plate test was conducted immediately after the von Frey test. Three hours after oxaliplatin administration, the animals were placed on a cold plate apparatus, and predrug latencies to pain reaction (i.e., lifting, biting, shaking of hind paws, jumping, movement deficits, or writhing response) were collected. Finally, the test compounds were injected, and 1 h later, the postdrug latencies to pain reaction were measured.

paclitaxel-treated mice = assay: paclitaxel-induced peripheral neuropathy, tactile allodynia (von Frey test); format: in vivo, mouse
Description: as §1
Doses of both paclitaxel and STZ used for the induction of neuropathy were selected based on our previous research.[66],[67] To induce neuropathy, paclitaxel was used at a dose of 18 mg/kg. It was prepared by dissolving in ethanol (100% (v/v); Polskie Odczynniki Chemiczne, Gliwice, Poland) at 10% of the final desired volume and vortexed for 2 min. An equal volume of Cremophor EL (10% of the final volume) was then added, and the mixture was vortexed for the next 10 min. Prior to injection, ice-cold physiological saline (80% of the final volume) was added to make up a final volume and the solution was maintained on ice during dosing.[66] To induce type I diabetes, mice were intraperitoneally injected with STZ (a single injection of STZ, 200 mg/kg) dissolved in 0.1 N citrate buffer. Age-matched control mice received an equal volume of citrate buffer. Blood glucose level was measured 1 day before (referred to as “day 0”) and repeatedly 1, 2, and 3 weeks after STZ injection using a blood glucose monitoring system (Accu-Chek Active, Roche, France). Blood samples for measurement of glucose concentration were obtained from the tail vein of the mice. The animals were considered as diabetic when their blood glucose concentration exceeded 300 mg/dL,[68] and only these mice (diabetic mice) were used in subsequent pain tests.[67]
as §3, §4

STZ-treated mice = assay: diabetic STZ-induced peripheral neuropathy, heat hyperalgesia (hot plate test); format: in vivo, mouse; conditions: i.p.
Description: as §1
Doses of both paclitaxel and STZ used for the induction of neuropathy were selected based on our previous research.[66],[67] To induce neuropathy, paclitaxel was used at a dose of 18 mg/kg. It was prepared by dissolving in ethanol (100% (v/v); Polskie Odczynniki Chemiczne, Gliwice, Poland) at 10% of the final desired volume and vortexed for 2 min. […] Blood glucose level was measured 1 day before (referred to as “day 0”) and repeatedly 1, 2, and 3 weeks after STZ injection using a blood glucose monitoring system (Accu-Chek Active, Roche, France). […]
Thermal (heat) nociceptive threshold was assessed in the hot plate test as previously described.[67] […] The time until the animal licked its hind paws or jumped was recorded by means of a stop-watch. […]

[3] = early (acute) phase of oxaliplatin-induced neuropathy, i.p., 50a and 56a at both doses (10 and 30 mg/kg)
[4] = early phase of oxaliplatin-induced neuropathy, i.p.
[5] = day 7 after paclitaxel injection, 30 mg/kg i.p., 30 mg/kg
[6] = day 7 after paclitaxel injection, lower dose (10 mg/kg) i.p.
[7] = day of paclitaxel administration, 10 and 30 mg/kg i.p.

| remaining NO711 binding mGAT1 (mGAT1) | Ki (mGAT1; MS binding assay, read-out: pKi ± SEM mGAT1 (converted)) [µM] | SMILES | concentration with statistically significant (p < 0.0001) decrease in HepG2 cell viability (HepG2 cells; tested 0.1–100 μM) [µM] | effect on mechanical nociceptive threshold (tactile allodynia), von Frey test (oxaliplatin-treated mice [1]; [3]) | effect on cold hyperalgesia, cold plate test (oxaliplatin-treated mice [2]; [4]) | effect on mechanical nociceptive threshold, von Frey test (paclitaxel-treated mice; [5]) | effect on mechanical nociceptive threshold, von Frey test (paclitaxel-treated mice; [6]) | effect on mechanical nociceptive threshold, von Frey test (paclitaxel-treated mice; [7]) | effect on heat nociceptive threshold, hot plate test (STZ-treated mice) | hepatotoxicity in HepG2 cells (HepG2 cells; concentrations up to 25 μM) | effect on mechanical nociceptive threshold (tactile allodynia), von Frey test (oxaliplatin-treated mice [1]; late phase (7 days after oxaliplatin), 10 mg/kg i.p., 10 mg/kg) | effect on cold hyperalgesia, cold plate test (oxaliplatin-treated mice [2]; early (acute) phase of oxaliplatin-induced neuropathy, 30 mg/kg i.p., 30 mg/kg) |
| --- | --- | --- | --- | --- | --- | --- | --- | --- | --- | --- | --- | --- |
| 100 μM: 69% | – | Cc1ccc(CNC(=O)[C@@H](C[C@@H](C)O)N(C)CCC=C2c3ccccc3CCc3ccccc32)cc1 (relative stereo) [Compound 2RS,4RS-39c, 2-((3-(10,11-Dihydro-5H-dibenzo[a,d][7]annulen-5-ylidene)propyl)(methyl)amino)-4-hydroxy-N-(4-methylbenzyl)pentanamide] | 25 | not effective | not effective | – | – | – | – | – | – | – |
| – | 33.1 | CN(CCON=C(c1ccccc1)c1ccccc1)C(CCN)C(=O)NCc1ccccc1Cl (centres unmarked) [Compound 50a, 4-Amino-N-[(2-chlorophenyl)methyl]-2-[(2-{[(diphenylmethylidene)amino]oxy}ethyl)(methyl)amino]butanamide] | – | significantly elevated the pain threshold for mechanical stimulation; also recorded: showed antiallodynic properties | not effective | elevated mechanical nociceptive threshold; also recorded: able to reduce tactile allodynia | not effective | neither 50a nor 56a at doses 10 and 30 mg/kg was able to elevate the mechanical nociceptive threshold | neither 50a nor 56a was effective | – | – | – |
| 100 μM: 68% | – | CN(CCC=C1c2ccccc2CCc2ccccc21)C(CO)C(=O)NCc1ccccc1 (centres unmarked) [Compound 56a, N-Benzyl-2-((3-(10,11-dihydro-5H-dibenzo[a,d][7]annulen-5-ylidene)propyl)(methyl)amino)-3-hydroxypropanamide] | – | reduced tactile allodynia; also recorded: showed antiallodynic properties | – | elevated mechanical nociceptive threshold; also recorded: able to reduce tactile allodynia | not effective | neither 50a nor 56a at doses 10 and 30 mg/kg was able to elevate the mechanical nociceptive threshold | neither 50a nor 56a was effective | did not induce significant hepatotoxicity | showed antiallodynic properties in the acute and late phases | reduced cold hyperalgesia in the acute phase |
